Columns and labels:
Type in all cases: cell-based, Human
active Caspase-3 = experiment: Apoptosis by active Caspase-3 in FSHD myotubes; conditions: FSHD1 and FSHD2 lines; 1 μM
Description: (§1) Briefly, cells were fixed in 4% paraformaldehyde and […] for 10 min at room temperature. Cells were permeabilized with PBST (1×PBS solution with 0.1% Triton X-100) before blocking with 10% Normal Donkey Serum or 3% BSA (NDS) in PBST. Cells were then incubated with appropriately diluted primary antibodies in PBST with 5% NDS for 1 hours at room temperature or 12 hours at 4° C., washed with PBST for 3 times at room temperature and then incubated with desired secondary antibodies in TBST with 5% NDS and DAPI to counter stain the nuclei. DUX4 was detected by immunocytochemistry using the E5-5 antibody in differentiated FSHD myotubes. Activated Caspase-3 was detected cell signaling antibody that we're using for ICC, Asp175 (https://www.cellsignal.com/products/primary-antibodies/cleaved-caspase-3-asp175-antibody/9661).
Apoptosis was measured by active Caspase-3 levels in FSHD myotubes in vitro as described in Materials and Methods. Apoptosis was detected in a sporadic manner in a subset of myotubes in culture as shown by the white circles and magnified region in FIG. 9A. Active Caspase-3 signal was quantified in FSHD myotubes that had been treated with FTX-1821 at different concentrations (FIG. 9B). […] No change in active Caspase-3 signal was observed following DMSO treatment.

FSHD myotubes = experiment: Myotube formation / fusion, MHC and DAPI staining; conditions: FSHD myotubes; 10, 100, and 1000 nM
Description: On day 0, change to differentiation media. Remove plates from the incubator and aspirate the growth medium, Wash once with PBS, 100 μL for 96-wells and 1 mL for a 6-well plate, Add 100 μL or 2 mL of differentiation medium per well, 96- or 6-well respectively. Add antisense oligonucleotides or drug at the desire concentration and put back in the incubator. Fusion should start within day 1-2. Incubate for 3-4 days.
as §1, with “Cells were then incubated with appropriately diluted primary antibodies in PBST with 5% NDS for 1 hours at room temperature or 12 hours at 4° C., washed with PBST for 3 times at room temperature and then incubated with desired secondary antibodies in TBST with 5% NDS and DAPI to counter stain the nuclei.” left out
Immortalized FHSD myotubes were differentiated and treated with DMSO vehicle control or FTX-1821 at concentrations of 1 μM, 0.33 μM, 0.11 μM, or 0.037 μM. […] The nuclei in myotubes were quantified according to MHC staining (FIG. 8B).

DUX4-fl mRNA = DUX4-fl mRNA by nested qPCR in FSHD myotubes; conditions: 10, 100, and 1000 nM vs DMSO
Description: In a 6 well plate, 450 μL Buffer RLT Plus was added. Lysate was homogenized by transfer the lysate to a gDNA Eliminator spin column placed in a 2 mL collection tube (supplied), centrifuged for 30 s at ≥8000×g (≥10,000 rpm) and discarded column while saving the flow-through. Then 250 μL of Ethanol (35% final) was added to the flow-through, and mixed well by pipetting, not centrifuged. Then samples were transferred, including any precipitate that may have formed, to an RNeasy MinElute spin column placed in a 2 mL collection tube (supplied). Then centrifuged for 15 s at […]. Flow-through was discarded or collected for Protein precipitation. 700 μL Buffer RW1 to the RNeasy MinElute spin column was added then centrifuge for 15 s at ≥8000×g. and discard the flow-through. DNAse treatment was performed by gently mixing 10 μL DNAseI with 70 μL of Buffer RDD and added directly to the column, incubated at room temperature for 20 min. Then, 700 μL Buffer RW1 (per manufactures specification) to the RNeasy MinElute spin column, centrifuged for 15 s at ≥8000×g. and the flow-through discarded. 500 μL Buffer RPE was added to the RNeasy MinElute spin column centrifuged for 15 s at ≥8000×g and discarded the flow-through. […]
cDNA preparation. […] 10 seconds then read plate on QuantStudio7 as per manufactures instruction (Thermo). […]

Structure (SMILES): Cn1c(=O)c(Oc2ccc(F)cc2F)cc2cnc(NC(CCO)CCO)nc21 [Pamapimod, 6-(2,4-difluorophenoxy)-2-((1,5-dihydroxypentan-3-yl)amino)-8-methylpyrido[2,3-d]pyrimidin-7(8H)-one]
- apoptosis (active caspase-3) (active Caspase-3): reduction in apoptosis
- differentiation into myotubes (FSHD myotubes): without impacting
- DUX4-fl mRNA levels normalized to POLR2A mRNA (DUX4-fl mRNA): dose-dependently reduced
